Source: PMC8004729, “Multifunctional Tyrosinase Inhibitor Peptides with Copper Chelating, UV-Absorption and Antioxidant Activities: Kinetic and Docking Studies” (Foods, 2021)
Entries after “also recorded” stand apart in the source; their conditions may differ. Marks after values point to notes of the source that are not given here. Residues, ends and D or L forms follow the SMILES beside them.

Columns and labels:
tyrosinase = molecular target: tyrosinase; design: method as in 2 sources, ref 25 = [25]; PMID 10441774; doi:10.1002/(SICI)1099-1573(199908/09)13:5<371::AID-PTR453>3.0.CO;2-L; 25. Lim J.Y. Ishiguro K. Kubo I. Tyrosinase inhibitory p-Coumaric acid from Ginseng leaves Phytother. Res. 1999 13 371 375 10.1002/(SICI)1099-1573(199908/09)13:5<371::AID-PTR453>3.0.CO;2-L 10441774 ||| ref 26 = [26]; PMID 3141207; doi:10.1007/BF01941189; 26. Maddaluno J.F. Faull K.F. Inhibition of mushroom tyrosinase by 3-amino-L-tyrosines: Molecular probing of the active site of the enzyme Experientia 1988 44 885 887 10.1007/BF01941189 3141207; settings: read-out: IC50 (tyrosinase mixed-type inhibitor); cited from earlier work
[1] = ABTS free radical scavenging assay; settings: peptide 10 mg/mL; dark, room temperature, 6 min; absorbance 734 nm; mean ± standard deviation (n = 3); SD
Procedure: The free radical scavenging potential of peptides was measured according to Cai, Luo, Sun and Corke. Briefly, ABTS reagent containing 7 mM ABTS and 2.45 mM ammonium persulfate were incubated in the dark at room temperature for 12–16 h. The reagent was diluted using 80% ethanol to an absorbance of 0.700 ± 0.005 at 734 nm. Then, 195 µL of the diluted ABTS reagent was added to 5 µL of peptide sample (10 mg/mL) and incubated in the dark at room temperature for 6 min. The absorbance of the sample at 734 nm was monitored immediately using a spectrophotometer. Gallic acid was used as the positive control. The ABTS free radical scavenging activity is calculated as follows:(5) ABTS free radical scavenging activity %=Acontrol−Asample/Acontrol×100 where Acontrol denotes the absorbance of the system containing ABTS and water whereas Asample denotes the absorbance of the system containing ABTS and peptide sample.

[2] = Sun protection factor (SPF) by UV spectrophotometry, Mansur equation; type: physicochemical; settings: peptide 10 mg/mL, UVB 290–320 nm absorbance, CF 10, mean ± standard deviation (n = 3), SD
Procedure: The ability of peptides to absorb light in the UVB region (290–320 nm) was measured according to the methods described by Dutra, Kedor-Hackmann and Santoro [18]. The UV–Vis spectrophotometer was set to scan the peptide samples from 220 to 400 nm with a 5 nm increment. The SPF values of the peptide samples (10 mg/mL) were calculated using the Mansur equation:(4) SPF=CF×∑290320EEλ×Iλ×Absλ where CF denotes correction factor of 10 (for the short pathlength used); EE denotes erythemal effect spectrum; I denotes solar intensity spectrum and Abs denotes the absorbance of sample.

[3] = Copper chelating activity (pyrocatechol violet); settings: peptide 10 mg/mL, 50 mM sodium acetate buffer pH 6.0, absorbance 632 nm, mean ± standard deviation (n = 3), SD
Procedure: The copper chelating activity was determined according to Kubglomsong et al.. Briefly, 4 mM of chromogenic reagent, i.e., pyrocatechol violet was prepared in 50 mM sodium acetate buffer (pH 6.0). Then, 10 µL of peptide sample (10 mg/mL), 280 µL sodium acetate buffer, 10 µL CuSO4∙5H2O and lastly 6 µL pyrocatechol violet were added to a 96-well plate. The sample solution was mixed well and the absorbance was measured at 632 nm using a spectrophotometer (Spectramax M5, Molecular Devices, San Jose, CA, USA). Ethylenediaminetetraacetic acid (EDTA) was used as the positive control. The copper chelating activity is calculated as follows:(3) Copper chelating activity %=Acontrol−Asample/Acontrol×100 where Acontrol denotes the absorbance of the system containing sodium acetate buffer, pyrocatechol violet and CuSO4∙5H2O whereas Asample denotes the absorbance of the system containing peptide, sodium acetate buffer, pyrocatechol violet and CuSO4∙5H2O.

Mushroom tyrosinase [4] = molecular target: T1, Mushroom tyrosinase (Agaricus bisporus, UniProt C7FF04); assay: Diphenolase inhibitory activity of tyrosinase (ʟ-DOPA as substrate) and Lineweaver–Burk mode of inhibition; type: biochemical; settings: diphenolase reaction; for Mode of Inhibition: Lineweaver–Burk plot, [S] 0.125 to 0.5 mM, different peptide concentrations
T1 construct: purchased Sigma-Aldrich
Procedure: (§1) The monophenolase and diphenolase inhibitory activities of tyrosinase were determined by using ʟ-tyrosine and ʟ-DOPA as substrates, respectively, as previously described. Various concentrations of peptides were tested to determine the IC50 values, i.e., the concentration of peptides required to inhibit half of the tyrosinase activities. The activities of monophenolase and diphenolase reactions were determined through the measurement of the rate of formation of dopachrome in the presence of substrate concentrations, [S] ranging from 0.125 to 0.5 mM. The initial velocity, V of the reaction was determined using the Beer–Lambert law:(1) ΔA=ε l Δc (2) V=ΔC/t=ΔA/ε l t where ΔC/t denotes the rate of change of the solution concentration; ΔA/t denotes the rate of change of absorbance i.e., slope of the reaction; ε denotes the molar extinction coefficient of dopachrome (3700 M^−1 cm^−1) and l denotes the pathlength.
Target sequence in this assay (C7FF04 1-392 limits assumed): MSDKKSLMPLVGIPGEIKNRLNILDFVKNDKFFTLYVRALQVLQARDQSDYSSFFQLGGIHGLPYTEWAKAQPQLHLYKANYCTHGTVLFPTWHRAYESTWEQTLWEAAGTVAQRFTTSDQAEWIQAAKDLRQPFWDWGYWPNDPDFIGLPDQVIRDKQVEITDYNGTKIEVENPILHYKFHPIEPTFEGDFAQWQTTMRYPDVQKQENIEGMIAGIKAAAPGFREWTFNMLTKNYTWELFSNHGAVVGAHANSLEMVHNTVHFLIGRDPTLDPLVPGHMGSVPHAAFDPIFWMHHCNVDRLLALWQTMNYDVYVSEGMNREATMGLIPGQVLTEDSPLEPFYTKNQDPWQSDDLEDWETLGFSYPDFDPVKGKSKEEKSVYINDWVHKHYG

[5] = Ferric reducing antioxidant power (FRAP) assay; settings: peptide 10 mg/mL; 37 °C for 1 h; absorbance 593 nm; mean ± standard deviation (n = 3); SD
Procedure: The reducing potential of peptides was measured according to Benzie and Strain [20]. ferric reducing antioxidant power (FRAP) reagent containing 300 mM acetate buffer (pH 3.6), 10 mM TPTZ prepared in 40 mM HCl and 20 mM FeCl3⸱6H2O in the ratio of 10:1:1 was incubated at 37 °C for 30 min. Then, 200 µL of FRAP reagent was added to 2.7 µL peptide sample (10 mg/mL) in a 96-well plate and mixed well before incubating at 37 °C for 1 h. The absorbance of the sample was then measured spectrophotometrically at 593 nm. Freshly prepared FRAP reagent was used for each run. A standard curve was prepared using FeSO4⸱7H2O at 0–3 mM. The peptide FRAP was expressed in mM FeSO4. Gallic acid was used as the positive control.

Mushroom tyrosinase [6] = molecular target: T1, Mushroom tyrosinase; assay: Monophenolase inhibitory activity of tyrosinase (ʟ-tyrosine as substrate) and Lineweaver–Burk mode of inhibition; type: biochemical; settings: monophenolase reaction; for Tyrosinase Activity Inhibition (%): substrate ʟ-tyrosine, peptide concentration 10 mg/mL, mean ± standard deviation (n = 3), SD; for Mode of Inhibition: Lineweaver–Burk plot, [S] 0.125 to 0.5 mM, different peptide concentrations
Procedure: as §1
Target sequence in this assay (C7FF04 1-392): as the sequence (C7FF04 1-392 limits assumed) above

[7] = DPPH free radical scavenging assay; settings: peptide 10 mg/mL; 0.1 mM DPPH in ethanol, 30 °C for 30 min; absorbance 517 nm; mean ± standard deviation (n = 3); SD
Procedure: The free radical scavenging potential of peptides was measured according to Blois. Briefly, 0.1 mM DPPH stock solution was prepared in ethanol. In a dark setting, 500 µL of DPPH was added to 16.65 µL peptide sample (10 mg/mL) and incubated at 30 °C for 30 min. The absorbance of the mixture was then monitored at 517 nm using a spectrophotometer. Gallic acid was used as the positive control. The DPPH free radical scavenging activity is calculated as follows:(6) DPPH free radical scavenging activity %=Acontrol−Asample/Acontrol×100 where Acontrol denotes the absorbance of the system containing DPPH and ethanol whereas Asample denotes the absorbance of the system containing DPPH and peptide sample.

[8] = substrate ʟ-DOPA, peptide concentration 10 mg/mL, mean ± standard deviation (n = 3), SD

| Compound | Antioxidant Activity ABTS (%) free radical scavenging [1] | SPF [2] | Copper Chelating Activity (%) [3] | Antioxidant Activity FRAP (mM FeSO4) [5] | Tyrosinase Activity Inhibition (%) (Mushroom tyrosinase [6]) | Mode of Inhibition (Mushroom tyrosinase [6]) | other results |
| --- | --- | --- | --- | --- | --- | --- | --- |
| O=C(O)/C=C/c1ccc(O)cc1 [p-coumaric acid] |  |  |  |  |  |  | IC50 (tyrosinase): < 0.36 mM |
| FMMFESQNKDLLFK [DIP3] | 0.99% | 1.98 ± 0.05 ^b | 26.23 ± 1.03 ^c % |  |  |  | Tyrosinase Activity Inhibition (%) (Mushroom tyrosinase [4]; [8]): 28.95 ± 1.47 ^c %; Mode of Inhibition (Mushroom tyrosinase [4]): uncompetitive inhibitor |
| HIATNAVLFFGR [DIP2] |  | 6.45 ± 0.40 ^d | 19.13 ± 2.22 ^b % | 0.018 ± 0.001 ^a mM FeSO4 |  |  | Tyrosinase Activity Inhibition (%) (Mushroom tyrosinase [4]; [8]): 17.70 ± 2.66 ^a %; Mode of Inhibition (Mushroom tyrosinase [4]): weaker competitive inhibitor; also recorded: competitive inhibitors |
| CC(C)C[C@H](NC(=O)[C@H](CO)NC(=O)[C@H](Cc1ccc(O)cc1)NC(=O)CN)C(=O)NCC(=O)N[C@@H](CC(N)=O)C(=O)N[C@@H](Cc1c[nH]c2ccccc12)C(=O)N[C@H](C(=O)N[C@@H](CS)C(=O)N[C@@H](C)C(=O)N[C@@H](C)C(=O)N[C@@H](CCCCN)C(=O)O)C(C)C [DIP1] (H-GYSLGNWVCAAK-OH) |  |  |  |  |  |  | IC50 (Mushroom tyrosinase [4]; substrate ʟ-DOPA, mean ± standard deviation, SD): 3.04 ± 0.39 mM; inhibition at 10000 µg/mL (Mushroom tyrosinase [4]; [8]): 80 ± 2.79% |
| ILELPFASGDLLML [MIP2] | 1.44% | 3.12 ± 0.13 ^c | 11.41 ± 0.13 ^a % |  | 17.26 ± 2.10 ^a % | weaker competitive inhibitor; also recorded: competitive inhibitors |  |
| O=C(O)CN(CCN(CC(=O)O)CC(=O)O)CC(=O)O [EDTA, Ethylenediaminetetraacetic acid, reference compound] |  |  | 96.06 ± 0.03^e % |  |  |  |  |
| ADHPF [MIP1] | 2.90 ± 0.28 ^b % | 1.80 ± 0.02 ^b | 94.33 ± 0.04 ^e % | 0.035 ± 0.004 ^a mM FeSO4 | 35.86 ± 2.26 ^d % | competitive inhibitors |  |
| O=C(O)c1cc(O)c(O)c(O)c1 [Gallic acid, reference compound] | 83.14 ± 3.02 ^d % |  |  | 16.6 ± 0.36 ^c mM FeSO4 |  |  | Antioxidant Activity DPPH (%) free radical scavenging [7]: 81.67 ± 0.03 ^b % |
| FDKLPGFGD [MIP3] | 2.11% | 1.36 ± 0.02 ^a | 94.43 ± 0.46 ^e % | 0.034 ± 0.002 ^a mM FeSO4 | 22.78 ± 1.12 ^b % | mixed-type inhibitor |  |
